≈ marks a conversion by molar mass, not a printed value.

Consider 14 compounds from ChEMBL document CHEMBL3045635, “Synthesis and in vitro antimicrobial evaluation of novel 2-amino-6-(phenylthio)-4-(2-(phenylthio)quinolin-3-yl)pyridine-3,5-dicarbonitriles” (2013).

Common to all, as to format: functional
One experiment deals with Aspergillus fumigatus. As to the kind of experiment: Antifungal activity against Aspergillus fumigatus MTCC 3008 after 48 hr by broth microdilution method.
The test system of another experiment is Vibrio cholerae. As to the kind of experiment: Antibacterial activity against Vibrio cholerae MTCC 3906 after 24 hr by broth microdilution method. As to conditions: MTCC 3906, 24 h.
A further experiment concerns Escherichia coli. As to the kind of experiment: Antibacterial activity against Escherichia coli MTCC 443 after 24 hr by broth microdilution method. As to conditions: MTCC 443, 24 h.
A further experiment concerns Salmonella typhi. As to the kind of experiment: Antibacterial activity against Salmonella enterica subsp. enterica serovar Typhi MTCC 98 after 24 hr by broth microdilution method. As to conditions: MTCC 98, 24 h.
The subject of another experiment is Bacillus subtilis. As to the kind of experiment: Antibacterial activity against Bacillus subtilis MTCC 441 after 24 hr by broth microdilution method. As to conditions: MTCC 441, 24 h.
A further experiment relates to Clostridium tetani. As to the kind of experiment: Antibacterial activity against Clostridium tetani MTCC 449 after 24 hr by broth microdilution method. As to conditions: MTCC 449, 24 h.
The next experiment deals with Streptococcus pneumoniae. As to the kind of experiment: Antibacterial activity against Streptococcus pneumoniae MTCC 1936 after 24 hr by broth microdilution method. As to conditions: MTCC 1936, 24 h.
The next experiment has as its system Candida albicans. As to the kind of experiment: Antifungal activity against Candida albicans MTCC 227 after 48 hr by broth microdilution method.

In the case of `Cc1ccc(Sc2nc(N)c(C#N)c(-c3cc4ccccc4nc3Sc3ccc(Cl)cc3)c2C#N)cc1`, the minimum inhibitory concentration (MIC) with Aspergillus fumigatus (MTCC 3008, 48 h) is > 1000 µg/mL; with Vibrio cholerae, 200 µg/mL (≈ 373 µM); in the experiment on Escherichia coli, 62.5 µg/mL (≈ 117 µM); against Salmonella typhi it was 100 µg/mL (≈ 187 µM); against Bacillus subtilis, 100 µg/mL (≈ 187 µM); in the experiment on Clostridium tetani, 250 µg/mL (≈ 466 µM). The MIC amounted to 200 µg/mL (≈ 373 µM) in the experiment with Streptococcus pneumoniae and 250 µg/mL (≈ 466 µM) against Candida albicans (MTCC 227, 48 h).
In the case of `CC1(C)S[C@@H]2[C@H](NC(=O)[C@H](N)c3ccccc3)C(=O)N2[C@H]1C(=O)O` [AMPICILLIN], the minimum inhibitory concentration (MIC) in the experiment on Vibrio cholerae is 100 µg/mL (≈ 286 µM); against Escherichia coli, 100 µg/mL (≈ 286 µM); in the experiment with Salmonella typhi, 100 µg/mL (≈ 286 µM); with Bacillus subtilis, 250 µg/mL (≈ 715 µM); in the experiment on Clostridium tetani, 250 µg/mL (≈ 715 µM); against Streptococcus pneumoniae, 100 µg/mL (≈ 286 µM).
For `Cc1ccc2nc(Sc3ccccc3)c(C=O)cc2c1`, the minimum inhibitory concentration (MIC) in the experiment on Aspergillus fumigatus (MTCC 3008, 48 h) was > 1000 µg/mL; against Vibrio cholerae, 250 µg/mL (≈ 895 µM); with Escherichia coli it was 200 µg/mL (≈ 716 µM); with Salmonella typhi, 200 µg/mL (≈ 716 µM); in the experiment on Bacillus subtilis, 500 µg/mL (≈ 1790 µM); in the experiment with Clostridium tetani it was 250 µg/mL (≈ 895 µM). The MIC was 500 µg/mL (≈ 1790 µM) with Streptococcus pneumoniae and > 1000 µg/mL with Candida albicans (MTCC 227, 48 h).
Turning to NYSTATIN, the MIC against Aspergillus fumigatus and with Candida albicans was 100 µg/mL in each case.
With `N#Cc1c(N)nc(Sc2ccccc2)c(C#N)c1-c1cc2ccccc2nc1Sc1ccccc1`, the minimum inhibitory concentration (MIC) turned out to be 500 µg/mL (≈ 1030 µM) in the experiment on Aspergillus fumigatus (MTCC 3008, 48 h); 200 µg/mL (≈ 410 µM) with Vibrio cholerae; 250 µg/mL (≈ 513 µM) in the experiment on Escherichia coli; 200 µg/mL (≈ 410 µM) against Salmonella typhi; 500 µg/mL (≈ 1030 µM) in the experiment with Bacillus subtilis; 500 µg/mL (≈ 1030 µM) with Clostridium tetani. The MIC worked out at 500 µg/mL (≈ 1030 µM) against Streptococcus pneumoniae and 250 µg/mL (≈ 513 µM) with Candida albicans (MTCC 227, 48 h).
On to `Cc1ccc(Sc2nc3ccc(C)cc3cc2C=O)cc1`, for which the MIC worked out at 250 µg/mL (≈ 852 µM) against Aspergillus fumigatus (MTCC 3008, 48 h); 125 µg/mL (≈ 426 µM) with Vibrio cholerae; 250 µg/mL (≈ 852 µM) against Escherichia coli; 200 µg/mL (≈ 682 µM) against Salmonella typhi; 250 µg/mL (≈ 852 µM) with Bacillus subtilis; 250 µg/mL (≈ 852 µM) with Clostridium tetani. Also, the MIC against Streptococcus pneumoniae is 250 µg/mL (≈ 852 µM); against Candida albicans (MTCC 227, 48 h), 500 µg/mL (≈ 1700 µM).
Regarding `Cc1ccc2nc(Sc3ccc(Cl)cc3)c(-c3c(C#N)c(N)nc(Sc4ccccc4)c3C#N)cc2c1`, the minimal inhibitory concentration (MIC) was > 1000 µg/mL against Aspergillus fumigatus (MTCC 3008, 48 h); 100 µg/mL (≈ 187 µM) with Vibrio cholerae; 62.5 µg/mL (≈ 117 µM) against Escherichia coli; 200 µg/mL (≈ 373 µM) in the experiment on Salmonella typhi; 250 µg/mL (≈ 466 µM) against Bacillus subtilis; 250 µg/mL (≈ 466 µM) in the experiment on Clostridium tetani. Moreover, the MIC came out at 250 µg/mL (≈ 466 µM) against Streptococcus pneumoniae and 1000 µg/mL (≈ 1870 µM) in the experiment on Candida albicans (MTCC 227, 48 h).
Consider `Cc1ccc(Sc2nc3ccc(C)cc3cc2-c2c(C#N)c(N)nc(Sc3ccc(Cl)cc3)c2C#N)cc1`, for which the minimum inhibitory concentration (MIC) against Aspergillus fumigatus (MTCC 3008, 48 h) is > 1000 µg/mL; in the experiment on Vibrio cholerae, 200 µg/mL (≈ 364 µM); against Escherichia coli it was 100 µg/mL (≈ 182 µM); in the experiment with Salmonella typhi it was 100 µg/mL (≈ 182 µM); against Bacillus subtilis, 250 µg/mL (≈ 454 µM); with Clostridium tetani, 100 µg/mL (≈ 182 µM). The minimum inhibitory concentration (MIC) against Streptococcus pneumoniae came to 250 µg/mL (≈ 454 µM); in the experiment with Candida albicans (MTCC 227, 48 h) it was 1000 µg/mL (≈ 1820 µM).
For `Cc1ccc(Sc2nc3ccc(C)cc3cc2-c2c(C#N)c(N)nc(Sc3ccccc3)c2C#N)cc1`, the MIC with Aspergillus fumigatus (MTCC 3008, 48 h) is 500 µg/mL (≈ 970 µM); with Vibrio cholerae it was 250 µg/mL (≈ 485 µM); against Escherichia coli it was 100 µg/mL (≈ 194 µM); against Salmonella typhi, 200 µg/mL (≈ 388 µM); in the experiment with Bacillus subtilis, 250 µg/mL (≈ 485 µM); with Clostridium tetani it was 500 µg/mL (≈ 970 µM). Also, the minimal inhibitory concentration (MIC) against Streptococcus pneumoniae is 250 µg/mL (≈ 485 µM); in the experiment with Candida albicans (MTCC 227, 48 h) it was > 1000 µg/mL.
As to `Cc1ccc(Sc2nc3ccccc3cc2-c2c(C#N)c(N)nc(Sc3ccc(Cl)cc3)c2C#N)cc1`, the minimal inhibitory concentration (MIC) against Aspergillus fumigatus (MTCC 3008, 48 h) is > 1000 µg/mL; against Vibrio cholerae, 200 µg/mL (≈ 373 µM); in the experiment on Escherichia coli, 200 µg/mL (≈ 373 µM); with Salmonella typhi it was 200 µg/mL (≈ 373 µM); in the experiment with Bacillus subtilis it was 200 µg/mL (≈ 373 µM); with Clostridium tetani, 100 µg/mL (≈ 187 µM). In addition, the MIC against Streptococcus pneumoniae was 250 µg/mL (≈ 466 µM); against Candida albicans (MTCC 227, 48 h), > 1000 µg/mL.
Consider `Cc1ccc2nc(Sc3ccc(Cl)cc3)c(C=O)cc2c1`, for which the minimum inhibitory concentration (MIC) in the experiment with Aspergillus fumigatus (MTCC 3008, 48 h) was 1000 µg/mL (≈ 3190 µM); with Vibrio cholerae, 100 µg/mL (≈ 319 µM); against Escherichia coli, 100 µg/mL (≈ 319 µM); with Salmonella typhi it was 125 µg/mL (≈ 398 µM); against Bacillus subtilis, 500 µg/mL (≈ 1590 µM); against Clostridium tetani it was 500 µg/mL (≈ 1590 µM). Further, the minimum inhibitory concentration (MIC) was found to be 500 µg/mL (≈ 1590 µM) in the experiment with Streptococcus pneumoniae and 200 µg/mL (≈ 637 µM) against Candida albicans (MTCC 227, 48 h).
On to `Cc1ccc(Sc2nc3ccccc3cc2C=O)cc1`, for which the MIC in the experiment on Aspergillus fumigatus (MTCC 3008, 48 h) was 200 µg/mL (≈ 716 µM); against Vibrio cholerae, 250 µg/mL (≈ 895 µM); in the experiment with Escherichia coli it was 200 µg/mL (≈ 716 µM); against Salmonella typhi, 250 µg/mL (≈ 895 µM); against Bacillus subtilis, 250 µg/mL (≈ 895 µM); against Clostridium tetani, 250 µg/mL (≈ 895 µM). The MIC against Streptococcus pneumoniae was 250 µg/mL (≈ 895 µM); with Candida albicans (MTCC 227, 48 h) it was 1000 µg/mL (≈ 3580 µM).
For `O=Cc1cc2ccccc2nc1Sc1ccccc1`, the MIC is 1000 µg/mL (≈ 3770 µM) in the experiment on Aspergillus fumigatus (MTCC 3008, 48 h); 200 µg/mL (≈ 754 µM) in the experiment with Vibrio cholerae; 200 µg/mL (≈ 754 µM) with Escherichia coli; 250 µg/mL (≈ 942 µM) with Salmonella typhi; 200 µg/mL (≈ 754 µM) in the experiment on Bacillus subtilis; 250 µg/mL (≈ 942 µM) against Clostridium tetani. Besides, the MIC against Streptococcus pneumoniae stood at 200 µg/mL (≈ 754 µM); with Candida albicans (MTCC 227, 48 h) it was 250 µg/mL (≈ 942 µM).
Consider `O=C(O)c1cn(C2CC2)c2cc(N3CCNCC3)c(F)cc2c1=O` [CIPROFLOXACIN], for which the minimal inhibitory concentration (MIC) with Vibrio cholerae worked out at 25 µg/mL (≈ 75.4 µM); against Escherichia coli, 25 µg/mL (≈ 75.4 µM); against Salmonella typhi it was 25 µg/mL (≈ 75.4 µM); against Streptococcus pneumoniae it was 50 µg/mL (≈ 151 µM).
